Experimental data taken from the NIST ThermoML archive (doi:10.1021/acs.jced.8b01256).
Numbers after ± are expanded uncertainties.

How the values were obtained:
[1] = Crystal; DSC
[2] = Molar enthalpy of transition or fusion; settings: Crystal; DSC

Triple point temperature [1]: 460.15 ± 1 K | Molar enthalpy of transition or fusion [2]: 2.55 ± 0.0908 kcal/mol
SMILES: Cc1[nH]nc2cc([N+](=O)[O-])ccc12 [3-methyl-6-nitroindazole]
